pIC50: −log10 of the molar value. Where a name gives a salt, the structure may show the parent alone.
Key:
[1] = system: new polyps in patients with adenomatous polyposis coli; assay: Clinical prevention trial in APC patients; format: in vivo, human
Text: The first clinical trial involved patients with APC.
using exisulind. In that study, each patient had already had his/her colon removed, except for a small section of colon adjacent the rectum (where the small intestine was attached) to preserve rectal function. However, such a patient commonly forms polyps in the small remaining colonic section, which polyps require periodic removal (e.g., by electrocautery).
That trial where exisulind was selected was a prevention trial designed to evaluate the anti-neoplastic characteristics of the drug by comparing the cumulative number of new polyps formed over twelve months by the drug and placebo groups. Eligible patients were those who form between 9 and 44 polyps per year. Patients were fully ablated (had all polyps removed) at the start of the study, at the end of 6 months and at the end of 12 months. The study enrolled thirty-four eligible patients. […] Based on the median number of polyps produced in the first six months of the study, patients treated with exisulind developed approximately one-third the number of polyps as patients treated with placebo (median values 9 polyps/year and 26 polyps/year, respectively; p=0.013). […]

[2] = system: premalignant lesions in mouse mammary gland organ culture; assay: Mammary gland organ culture model; format: cell-based; on mammary gland organ culture: key: −: Not active; +: Slightly active; ++: Moderately active; +++: Strongly active; ++++: Highly active
[3] = system: Bronchial Epithelial Cells; assay: Growth inhibition, SRB assay, bronchial epithelial cells; format: cell-based; details: Epithelial cell
Text: A compound's ability to inhibit tumor cell growth can be measured using the HT-29 human colon carcinoma cell line obtained from ATCC. HT-29 cells have previously been characterized as a relevant colon tumor cell culture model (Fogh, J., and Trempe, G. In: Human Tumor Cells in Vitro, J. Fogh (eds.), Plenum Press, New York, pp. 115-159, 1975). HT-29 cells are maintained in RPMI media supplemented with 5% fetal bovine calf serum (Gemini Bioproducts, Inc., Carlsbad, Calif.) and 2 mm glutamine, and 1% antibiotic-antimycotic in a humidified atmosphere of 95% air and 5% CO2 at 37° C. Briefly, HT-29 cells are plated at a density of 500 cells/well in 96 well microtiter plates and incubated for 24 hours at 37° C. prior to the addition of compound. […] After six days in culture, the cells are fixed by the addition of cold trichloroacetic acid to a final concentration of 10% and protein levels are measured using the sulforhodamine B (SRB) colorimetric protein stain assay as previously described by Skehan, P., Storeng, R., Scudiero, D., Monks, A., McMahon, J., Vistica, D., Warren, J. T., Bokesch, H., Kenney, S., and Boyd, M. R., “New Colorimetric Assay For Anticancer-Drug Screening,” J. Natl. Cancer Inst. […]
To show the effectiveness of this screening method on various forms of neoplasia, compounds were tested on numerous cell lines. […] The IC50 values were determined by the SRB assay. […]

[4] = system: PC-3; assay: Growth inhibition, neutral red assay, PC-3; format: cell-based, human; details: free base, five days
Description: (§1) Compound I's activity is not confined to activity against colon cancer cell lines or animal models of colon cancer. It has a broad range of anti-neoplastic effects in various neoplastic cell lines. Various types of human cancer cell lines were propagated under sterile conditions in RPMI 1640 medium with 10% fetal bovine serum, 2 mM L-glutamine and sodium bicarbonate. To determine growth inhibitory effects of Compound I, cells were seeded in 96-well plates at a density of 1000 cells per well. Twenty-four hours after plating, the cells were dosed with various concentrations of the free base of Compound I solubilized in DMSO (final concentration 0.1%). The effect of the drug on tumor cell growth was determined using the neutral red cytotoxicity assay following five days of continuous treatment. Neutral red is a dye that is selectively taken up by viable cells by an ATP-dependent transport mechanism.

[5] = system: UISO-BCA-1; assay: Growth inhibition, neutral red assay, UISO-BCA-1; format: cell-based, human; details: free base, five days
Description: as §1

[6] = system: MDA-MB-435; assay: Growth inhibition, neutral red assay, MDA-MB-435; format: cell-based, human; details: free base, five days
Description: as §1

[7] = system: NCI-H322M; assay: Growth inhibition, neutral red assay, NCI-H322M; format: cell-based, human; details: free base, five days
Description: as §1

[8] = system: SW-480 cell line; assay: Growth inhibition in SW-480; format: cell-based; details: Homo sapiens, SW480
Description: The growth inhibition IC50 value obtained for Compound I was 0.7 μM in the SW-480 cell line. […] This established rodent model of azoxymethane (“AOM”)-induced carcinogenesis was used to assess the effects of Compound I (free base and salt) on colon cancer development in vivo. ACF are precursors to colonic tumors, and ACF inhibition is predictive of chemo-preventive efficacy.

SMILES	median number of polyps produced, entire 12 months ([1]; entire 12 months of the study)	median number of polyps produced, first six months ([1]; first six months of the study)	inhibition of the formation of premalignant lesions ([2]; mammary gland organ culture)	Mammary Gland Organ Culture ([2]; qualitative activity profile)	IC50 [3]	GI50 ([4]; Homo sapiens, PC-3, 120 h)	GI90 μM, PC-3 [4]	GI50 ([5]; Homo sapiens, 120 h)	GI90 μM, UISO-BCA-1 [5]	GI50 ([6]; Homo sapiens, MDA-MB-435, 120 h)	GI90 μM, MDA-MB-435 [6]	GI50 ([7]; Homo sapiens, NCI-H322M, 120 h)	GI90 μM, NCI-H322M [7]	pIC50 [8]
CC1=C(CC(=O)O)c2cc(F)ccc2/C1=C\c1ccc(S(C)(=O)=O)cc1 [Exisulind, 5-fluoro-2-methyl-1-(p-methylsulfonylbenzylidene)-3-indenylacetic acid]	18 polyps/year	9 polyps/year	effectively inhibit the formation of premalignant lesions	+++	90 µM	–	–	–	–	–	–	–	–	–
CC1=C(CC(=O)NCc2ccccc2)c2cc(F)ccc2/C1=C\c1ccncc1 [Compound I, (Z)-5-fluoro-2-methyl-(4-pyridylidene)-3-(N-benzyl)indenylacetamide hydrochloride]	–	–	–	–	–	1.7 µM	82.5 µM	1.5 µM	4.7 µM	1.6 µM	2.3 µM	2.1 µM	13.2 µM	6.15
